In the NIST ThermoML archive (doi:10.1021/je400919u):

Conditions: Liquid, Closed cell (Static) method

FCC(F)(F)F [1,1,1,2-tetrafluoroethane]
Conditions	vapor or sublimation pressure [kPa]
258.2 K	162
262.2 K	193
272.2 K	286
282.6 K	411
292.9 K	569
302.7 K	763

FC(F)(F)C1(F)OC1(F)F (stereo unspecified) [2,2,3-trifluoro-3-(trifluoromethyl)oxirane]
Conditions	vapor or sublimation pressure [kPa]
273 K	309
278 K	366
283 K	431
288 K	505
293 K	588

O=C=O [carbon dioxide]
Conditions	vapor or sublimation pressure [kPa]
273 K	3387
283 K	4406
293 K	5627
298.1 K	6323

FC(F)Cl [chlorodifluoromethane]
Conditions	vapor or sublimation pressure [kPa]
273 K	495
275 K	528
277 K	562
279 K	599
281 K	637
283 K	677
285.1 K	718
286.9 K	761
289 K	807
291.1 K	855
295.1 K	955
